Holding throughout (assay): NCI anticancer screen, dose series, 48 h
For assay [1], the system named is UACC-62.
The subject of assay [2] is SNB-19.
Assay [3] concerns K562.
Assay [4] deals with OVCAR-3.
Assay [5] concerns HOP-92.
For assay [6], the system named is RXF 393.
For assay [7], the system named is OVCAR-8.
For assay [8], the system named is SK-OV-3.
Assay [9] deals with CCRF-CEM.
Assay [10] relates to HCC 2998.
The test system of assay [11] is SNB-75.
In assay [12] the test system is 786-0.
Assay [13] deals with SF-268.
For assay [14], the system named is SF-539.
In assay [15] the test system is SK-MEL-28.
The subject of assay [16] is M14.
The subject of assay [17] is TK-10.
Assay [18] has as its system SR.
Assay [19] concerns OVCAR-5.
The test system of assay [20] is HOP-62.

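Exposure lasted 48 hours, with cells grown in 96-well plates and compounds tested at five concentrations. The concentration for 50% growth inhibition is given as GI50.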 Activity calls are given as the source filed them. Rule as the data show it: active = GI50 up to about 1.1 µM and inactive = higher.

For `CCOC(=O)C1([Se]c2ccccc2)CCCC1=O` (stereo not given), the GI50 in [1] is 14.7 µM (inactive); in assay [2] it was 44.1 µM (inactive); in [3], 33.5 µM (inactive); in [4], 26.6 µM (inactive); in assay [5], 25.5 µM (inactive); in assay [6], 7.82 µM (inactive). Further, the GI50 was 16.8 µM (inactive) in assay [7]; > 100 µM (inactive) in assay [8]; 15.2 µM (inactive) in [9]; 25.9 µM (inactive) in [10]; 23.6 µM (inactive) in assay [11]; 14.2 µM (inactive) in assay [12]. Also, the GI50 in assay [13] is 11.7 µM (inactive); in [14] it was 19.6 µM (inactive); in assay [15], 18.9 µM (inactive); in assay [16], 21.3 µM (inactive); in assay [17], 77.6 µM (inactive); in assay [18], 14 µM (inactive). Moreover, the GI50 in assay [19] is 40.8 µM (inactive); in assay [20] it was 96.8 µM (inactive).
Consider `COc1cccc(C2c3cc4c(cc3OC(N3CCCCC3)C2C)OCO4)c1OC` (stereo not given), for which the GI50 was 12.9 µM (inactive) in assay [1]; 14.8 µM (inactive) in [2]; 3.63 µM (inactive) in [3]; 4.15 µM (inactive) in assay [4]; 5.4 µM (inactive) in [5]; 4.08 µM (inactive) in [6]. Besides, the GI50 in assay [7] was > 100 µM (inactive); in assay [8], 12.4 µM (inactive); in assay [9] it was 3.46 µM (inactive); in assay [10] it was 15.3 µM (inactive); in [11], 5.52 µM (inactive); in assay [12], 72.1 µM (inactive). The GI50 in assay [13] was 8.2 µM (inactive); in assay [14], 12.6 µM (inactive); in assay [15] it was 16.3 µM (inactive); in [16] it was 12.7 µM (inactive); in assay [17] it was 16.5 µM (inactive); in assay [18] it was 1.24 µM (inactive). Also, the GI50 is 17.7 µM (inactive) in assay [19] and 17.9 µM (inactive) in assay [20].
For `CN1CCc2cc3c4cc2C1Cc1ccc(cc1)Oc1cc(ccc1O)CC1c2c(cc(O)c(c2O4)O3)CCN1C` (stereo not given), the GI50 in [1] was 2.02 µM (inactive); in assay [2] it was 2.83 µM (inactive); in [3], 0.9 µM (active); in assay [4], 3.94 µM (inactive); in assay [5] it was 2.52 µM (inactive); in assay [6], 3.24 µM (inactive). The GI50 was 2.86 µM (inactive) in assay [7]; 3.1 µM (inactive) in [8]; 2.52 µM (inactive) in assay [9]; 2.06 µM (inactive) in [10]; 3.53 µM (inactive) in assay [11]; 5.26 µM (inactive) in assay [12]. The GI50 in [13] was 2.16 µM (inactive); in assay [14], 1.67 µM (inactive); in [15], 1.8 µM (inactive); in assay [16] it was 1.62 µM (inactive); in assay [17], 10.6 µM (inactive); in assay [18], 3.92 µM (inactive). The figures for the GI50 in [19] and in [20] were 8.2 µM (inactive) and 5.4 µM (inactive), respectively.
For the compound `Nc1nc(Cl)cc(NCC(O)CO)n1` (stereo not given), the GI50 in [1], in assay [2], in [3], in assay [4], in assay [5] and in assay [6] was > 100 µM (inactive) each time. Besides, the GI50 in assay [7], in assay [8], in assay [9], in assay [10], in [11] and in assay [12] was > 100 µM (inactive) throughout. For the same compound, the GI50 in [13], in [14], in assay [15], in assay [16], in [17] and in assay [18] was > 100 µM (inactive) in each case. For the same compound, the GI50 in assay [19] and in assay [20] was > 100 µM (inactive) throughout.
Take `O=C1CC(c2n[nH]c3ccccc23)C(=O)N1c1ccccc1` (stereo not given): the GI50 is > 100 µM (inactive) in [1]; > 100 µM (inactive) in [2]; 43.9 µM (inactive) in [3]; > 100 µM (inactive) in [4]; > 78.2 µM (inactive) in assay [5]; > 100 µM (inactive) in [6]. The GI50 in assay [7] is > 100 µM (inactive); in assay [8] it was > 100 µM (inactive); in [9], 29.2 µM (inactive); in assay [10], > 100 µM (inactive); in assay [11], > 100 µM (inactive); in assay [12] it was > 100 µM (inactive). Besides, the GI50 in assay [13] is > 100 µM (inactive); in [14] it was > 100 µM (inactive); in assay [15], > 100 µM (inactive); in [16], > 100 µM (inactive); in assay [17], > 100 µM (inactive); in assay [18], 36.5 µM (inactive). The GI50 in assay [19] and in [20] was > 100 µM (inactive) each time.
On to `Cc1ccc(S(=O)(=O)N2CCSCCSCCSCCSCC2)cc1`, for which the GI50 is 17.1 µM (inactive) in assay [1]; 24.8 µM (inactive) in assay [2]; > 71 µM (inactive) in assay [3]; 35.5 µM (inactive) in assay [4]; 12.3 µM (inactive) in assay [5]; > 27.9 µM (inactive) in [6]. In addition, the GI50 is 24.3 µM (inactive) in assay [7]; 19.1 µM (inactive) in assay [8]; 64.3 µM (inactive) in assay [9]; > 100 µM (inactive) in assay [10]; 11.9 µM (inactive) in assay [11]; 21.1 µM (inactive) in assay [12]. The GI50 is 34.5 µM (inactive) in assay [13]; 26.9 µM (inactive) in [14]; > 88.5 µM (inactive) in [15]; 61.4 µM (inactive) in assay [16]; 44.6 µM (inactive) in assay [17]; > 74.3 µM (inactive) in assay [18]. For the same compound, the GI50 was > 100 µM (inactive) in assay [19] and > 40.6 µM (inactive) in [20].
Turning to `C1=CC2=CC=CC3c4nc5ccc6ccccc6c5nc4C(=C1)C23` (stereo not given), the GI50 in [1], in [2], in assay [3], in assay [4], in assay [5] and in assay [6] was > 100 µM (inactive) in each case. In addition, the GI50 in [7], in [8], in assay [9], in assay [10], in assay [11] and in [12] was > 100 µM (inactive) throughout. Also, the GI50 in [13], in assay [14], in [15], in assay [16], in assay [17] and in assay [18] was > 100 µM (inactive) throughout. For the same compound, the GI50 in [19] and in assay [20] was > 100 µM (inactive) in each case.

For the origin of these results see ChEMBL document CHEMBL1201862, “PubChem BioAssay data set” (2004).
